A value given as a limit tells only on which side of the number the result lay.

Experiment [1] addresses T1, BTK (Homo sapiens (Human), UniProt Q06187). The experiment in a line: In Vitro BTK Kinase Assay: BTK-POLYGAT-LS ASSAY. Format: biochemical. To be noted: fluorescein-labeled polyGAT peptide 100 nM, BTK enzyme 0.25 nM, 30 minutes, TRF. The method, boiled down: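 ATP […] and polyGAT peptide (100 nM), final concentrations, in Tris-HCl pH 7.5 kinase buffer with MgCl2, DTT, Triton X-100 and casein. Reaction run 30 min, stopped with EDTA, then 45 min at room temperature.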

Experiment [2] addresses T1, BTK. Nature of the experiment: In Vitro PD Assay in Human Whole Blood (pBTK assay). The format is cell-based. To be noted: human heparinized whole blood, 37° C. for 30 min, total BTK capture and phosphotyrosine detection (ECL). The method, boiled down: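 Heparinized human venous whole blood spiked with serially diluted compound (0.1% DMSO final) and incubated 30 min at 37° C. Lysed with protease/phosphatase inhibitors (high control +PPi, low control −PPi lacking phosphatase inhibitors); total BTK captured and phosphotyrosine detected.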

T1 sequence (Q06187 whole entry): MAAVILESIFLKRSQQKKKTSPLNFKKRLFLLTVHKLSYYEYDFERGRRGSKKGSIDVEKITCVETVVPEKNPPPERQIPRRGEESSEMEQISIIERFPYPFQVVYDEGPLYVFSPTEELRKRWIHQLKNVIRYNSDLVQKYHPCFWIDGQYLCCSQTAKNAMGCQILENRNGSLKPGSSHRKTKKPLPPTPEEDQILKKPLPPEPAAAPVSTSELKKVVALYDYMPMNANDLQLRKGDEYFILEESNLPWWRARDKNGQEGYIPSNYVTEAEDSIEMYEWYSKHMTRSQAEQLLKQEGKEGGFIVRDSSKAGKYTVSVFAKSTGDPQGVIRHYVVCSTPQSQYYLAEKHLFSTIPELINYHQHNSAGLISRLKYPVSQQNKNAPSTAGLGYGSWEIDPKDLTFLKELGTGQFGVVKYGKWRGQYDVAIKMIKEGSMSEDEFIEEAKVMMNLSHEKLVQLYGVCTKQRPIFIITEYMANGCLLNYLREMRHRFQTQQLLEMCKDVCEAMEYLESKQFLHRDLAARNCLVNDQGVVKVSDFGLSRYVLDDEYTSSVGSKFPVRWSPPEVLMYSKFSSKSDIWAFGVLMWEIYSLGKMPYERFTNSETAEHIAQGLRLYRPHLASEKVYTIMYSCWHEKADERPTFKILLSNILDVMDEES

As a reminder, the IC50 is the concentration that inhibits the measured activity by half. A low value points to greater potency. `Cc1cc(-c2ncnc(Nc3cnn(C)c3)n2)ccc1CNC(=O)c1noc(C2(C)CC2)n1` [Compound 40, N-(2-methyl-4-(4-((1-methyl-1H-pyrazol-4-yl)amino)-1,3,5-triazin-2-yl)benzyl)-5-(1-methylcyclopropyl)-1,2,4-oxadiazole-3-carboxamide]: the values for the IC50 at BTK [1] and against BTK [2] were under 1 nM and 100 to 500 nM, respectively.
On to `Cc1cc(-c2ncnc(Nc3ccn(C)n3)n2)ccc1CNC(=O)c1noc(C(C)(C)CF)n1` [Compound 44, 5-(1-fluoro-2-methylpropan-2-yl)-N-(2-methyl-4-(4-((1-methyl-1H-pyrazol-3-yl)amino)-1,3,5-triazin-2-yl)benzyl)-1,2,4-oxadiazole-3-carboxamide], for which the IC50 on BTK [1] was 1 to 10 nM; on BTK [2], 100 to 500 nM.
On to `Cc1c(CNC(=O)c2noc(C3(C)CC3)n2)ccc(-c2ncnc(Nc3cnn(C)c3)n2)c1F` [Compound 32, N-(3-fluoro-2-methyl-4-(4-((1-methyl-1H-pyrazol-4-yl)amino)-1,3,5-triazin-2-yl)benzyl)-5-(1-methylcyclopropyl)-1,2,4-oxadiazole-3-carboxamide], for which the figures for the IC50 at BTK [1] and at BTK [2] were under 1 nM and under 100 nM, respectively.
Consider `Cn1ccc(Nc2ncnc(-c3ccc4c(c3F)CCCC[C@H]4NC(=O)c3coc(C(C)(C)C)n3)n2)n1` [Compound 112, (R)-2-(tert-butyl)-N-(1-fluoro-2-(4-((1-methyl-1H-pyrazol-3-yl)amino)-1,3,5-triazin-2-yl)-6,7,8,9-tetrahydro-5H-benzo[7]annulen-5-yl)oxazole-4-carboxamide], for which the results for the 50% inhibitory concentration (IC50) against BTK [1] and at BTK [2] were under 1 nM and 500 to 10000 nM, respectively.
Regarding `Cn1ccc(Nc2ncnc(-c3ccc4c(c3)CN(CC(F)(F)F)CC[C@H]4NC(=O)c3nc(C(C)(C)C)co3)n2)n1` [Compound 96, (R)-4-(tert-butyl)-N-(8-(4-((1-methyl-1H-pyrazol-3-yl)amino)-1,3,5-triazin-2-yl)-2-(2,2,2-trifluoroethyl)-2,3,4,5-tetrahydro-1H-benzo[c]azepin-5-yl)oxazole-2-carboxamide], the 50% inhibitory concentration (IC50) was 1 to 10 nM against BTK [1] and 500 to 10000 nM on BTK [2].
In the case of `Cc1c([C@@H](C)NC(=O)c2cc(C(C)(C)C)on2)ccc(-c2ncnc(Nc3cnn(C)c3)n2)c1F` [Compound 76, (R)-5-(tert-butyl)-N-(1-(3-fluoro-2-methyl-4-(4-((1-methyl-1H-pyrazol-4-yl)amino)-1,3,5-triazin-2-yl)phenyl)ethyl)isoxazole-3-carboxamide], the IC50 at BTK [1] was under 1 nM; on BTK [2], 100 to 500 nM.
For `Cc1c(CNC(=O)c2noc(C3(C(F)(F)F)CC3)n2)ccc(-c2ncnc(Nc3ccn(C)n3)n2)c1F` [Compound 52, N-(3-fluoro-2-methyl-4-(4-((1-methyl-1H-pyrazol-3-yl)amino)-1,3,5-triazin-2-yl)benzyl)-5-(1-(trifluoromethyl)cyclopropyl)-1,2,4-oxadiazole-3-carboxamide], in that order: 1 to 10 nM and 500 to 10000 nM.
Consider `Cc1cc(-c2ncnc(Nc3cnn(C)c3)n2)ccc1CNC(=O)c1nnn(C(C)(C)C)n1` [Compound 39, 2-(tert-butyl)-N-(2-methyl-4-(4-((1-methyl-1H-pyrazol-4-yl)amino)-1,3,5-triazin-2-yl)benzyl)-2H-tetrazole-5-carboxamide], for which the IC50 at BTK [1] was under 1 nM; against BTK [2] it was under 100 nM.
For the compound `Cc1cc(-c2ncnc(Nc3cnn(C)c3)n2)ccc1CNC(=O)c1cc(C(C)(C)C)no1` [Compound 108, 3-(tert-butyl)-N-(2-methyl-4-(4-((1-methyl-1H-pyrazol-4-yl)amino)-1,3,5-triazin-2-yl)benzyl)isoxazole-5-carboxamide], the IC50 on BTK [1] is under 1 nM; against BTK [2], 100 to 500 nM.
Regarding `Cc1c([C@@H](C)NC(=O)c2nc(C(C)(C)C)no2)ccc(-c2ncnc(Nc3cnn(C)c3)n2)c1F` [Compound 74, (R)-3-(tert-butyl)-N-(1-(3-fluoro-2-methyl-4-(4-((1-methyl-1H-pyrazol-4-yl)amino)-1,3,5-triazin-2-yl)phenyl)ethyl)-1,2,4-oxadiazole-5-carboxamide], the IC50 at BTK [1] is under 1 nM; against BTK [2], under 100 nM.
Take `Cc1cc(-c2ncnc(Nc3ccn(C)n3)n2)ccc1CNC(=O)c1cnc(C(C)(C)C)o1` [Compound 3, 2-(tert-butyl)-N-(2-methyl-4-(4-((1-methyl-1H-pyrazol-3-yl)amino)-1,3,5-triazin-2-yl)benzyl)oxazole-5-carboxamide]: the half-maximal inhibitory concentration (IC50) was in the range of 1 to 10 nM against BTK [1] and 500 to 10000 nM on BTK [2].
With `Cn1cc(Nc2ncnc(-c3ccc(CNC(=O)c4nc(C(C)(C)C)no4)c(Cl)c3)n2)cn1` [Compound 16, 3-(tert-butyl)-N-(2-chloro-4-(4-((1-methyl-1H-pyrazol-4-yl)amino)-1,3,5-triazin-2-yl)benzyl)-1,2,4-oxadiazole-5-carboxamide], the results for the IC50 on BTK [1] and against BTK [2] were under 1 nM and 100 to 500 nM, respectively.
On to `Cc1c(CNC(=O)c2nn(C(C)(C)C)cc2F)ccc(-c2ncnc(Nc3cnn(C)c3)n2)c1F` [Compound 27, 1-(tert-butyl)-4-fluoro-N-(3-fluoro-2-methyl-4-(4-((1-methyl-1H-pyrazol-4-yl)amino)-1,3,5-triazin-2-yl)benzyl)-1H-pyrazole-3-carboxamide], for which the IC50 was under 1 nM against BTK [1] and 100 to 500 nM at BTK [2].
As to `Cn1ccc(Nc2ncnc(-c3ccc(CNC(=O)c4nc(C(C)(C)C)no4)c(C(F)(F)F)c3F)n2)n1` [Compound 20, 3-(tert-butyl)-N-(3-fluoro-4-(4-((1-methyl-1H-pyrazol-3-yl)amino)-1,3,5-triazin-2-yl)-2-(trifluoromethyl)benzyl)-1,2,4-oxadiazole-5-carboxamide], the IC50 against BTK [1] is under 1 nM; against BTK [2], 500 to 10000 nM.
For `Cn1ccc(Nc2ncnc(-c3ccc4c(c3F)CCCC[C@H]4NC(=O)c3noc(C(C)(C)C)n3)n2)n1` [Compound 111, (R)-5-(tert-butyl)-N-(1-fluoro-2-(4-((1-methyl-1H-pyrazol-3-yl)amino)-1,3,5-triazin-2-yl)-6,7,8,9-tetrahydro-5H-benzo[7]annulen-5-yl)-1,2,4-oxadiazole-3-carboxamide], the IC50 against BTK [1] is under 1 nM; against BTK [2], 100 to 500 nM.
Consider `Cc1cc(-c2ncnc(Nc3cnn(C)c3)n2)c(F)cc1CNC(=O)c1cc(C(C)(C)C)no1` [Compound 63, 3-(tert-butyl)-N-(5-fluoro-2-methyl-4-(4-((1-methyl-1H-pyrazol-4-yl)amino)-1,3,5-triazin-2-yl)benzyl)isoxazole-5-carboxamide], for which the IC50 was under 1 nM against BTK [1] and 500 to 10000 nM against BTK [2].
For `Cc1c(CNC(=O)c2noc(C(C)(C)C)n2)ccc(-c2ncnc(Nc3ccn(C)n3)n2)c1F` [Compound 9, 5-(tert-butyl)-N-(3-fluoro-2-methyl-4-(4-((1-methyl-1H-pyrazol-3-yl)amino)-1,3,5-triazin-2-yl)benzyl)-1,2,4-oxadiazole-3-carboxamide], in that order: under 1 nM and 100 to 500 nM.
For `Cc1cc(-c2ncnc(Nc3cnn(C)c3)n2)ccc1CNC(=O)c1cnn(C(C)(C)C)c1` [Compound 37, 1-(tert-butyl)-N-(2-methyl-4-(4-((1-methyl-1H-pyrazol-4-yl)amino)-1,3,5-triazin-2-yl)benzyl)-1H-pyrazole-4-carboxamide], in that order: under 1 nM and 100 to 500 nM.
For the compound `Cc1cc(-c2ncnc(Nc3cnn(C)c3)n2)c(F)cc1CNC(=O)c1cn(C(C)(C)C)nn1` [Compound 62, 1-(tert-butyl)-N-(5-fluoro-2-methyl-4-(4-((1-methyl-1H-pyrazol-4-yl)amino)-1,3,5-triazin-2-yl)benzyl)-1H-1,2,3-triazole-4-carboxamide], the 50% inhibitory concentration (IC50) at BTK [1] was in the range of 1 to 10 nM; against BTK [2] it was 500 to 10000 nM.
Turning to `Cc1cc(-c2ncnc(Nc3cnn(C)c3)n2)ccc1CNC(=O)c1noc(C(C)(C)C)n1` [Compound 11, 5-(tert-butyl)-N-(2-methyl-4-(4-((1-methyl-1H-pyrazol-4-yl)amino)-1,3,5-triazin-2-yl)benzyl)-1,2,4-oxadiazole-3-carboxamide], the IC50 against BTK [1] is under 1 nM; at BTK [2], 100 to 500 nM.
For the compound `Cn1cc(Nc2ncnc(-c3ccc4c(c3F)CCCC[C@H]4NC(=O)c3noc(C(C)(C)C)n3)n2)cn1` [Compound 88, (R)-5-(tert-butyl)-N-(1-fluoro-2-(4-((1-methyl-1H-pyrazol-4-yl)amino)-1,3,5-triazin-2-yl)-6,7,8,9-tetrahydro-5H-benzo[7]annulen-5-yl)-1,2,4-oxadiazole-3-carboxamide], the figures for the IC50 against BTK [1] and against BTK [2] were under 1 nM and under 100 nM, respectively.
For `Cn1cc(Nc2ncnc(-c3ccc(CNC(=O)c4noc(C(C)(C)C)n4)c(Cl)c3F)n2)cn1` [Compound 28, 5-(tert-butyl)-N-(2-chloro-3-fluoro-4-(4-((1-methyl-1H-pyrazol-4-yl)amino)-1,3,5-triazin-2-yl)benzyl)-1,2,4-oxadiazole-3-carboxamide], in that order: under 1 nM and under 100 nM.
For `Cn1ccc(Nc2ncnc(-c3ccc4c(c3)CN(C3COC3)CC[C@H]4NC(=O)c3coc(C(C)(C)C)n3)n2)n1` [Compound 94, (R)-2-(tert-butyl)-N-(8-(4-((1-methyl-1H-pyrazol-3-yl)amino)-1,3,5-triazin-2-yl)-2-(oxetan-3-yl)-2,3,4,5-tetrahydro-1H-benzo[c]azepin-5-yl)oxazole-4-carboxamide], the IC50 fell in the range of 1 to 10 nM at BTK [1] and 100 to 500 nM against BTK [2].
On to `Cc1cc(-c2ncnc(Nc3cnn(C)c3)n2)c(F)cc1CNC(=O)c1nnn(C(C)(C)C)n1` [Compound 58, 2-(tert-butyl)-N-(5-fluoro-2-methyl-4-(4-((1-methyl-1H-pyrazol-4-yl)amino)-1,3,5-triazin-2-yl)benzyl)-2H-tetrazole-5-carboxamide], for which the IC50 against BTK [1] was under 1 nM; against BTK [2], 100 to 500 nM.

Values taken from US10899753B2, “Inhibiting agents for Bruton's tyrosine kinase” (BIOGEN MA INC., priority 2018, dated 2021).
